# Values quoted from earlier work, collected in US20240350591A1, “COMPOSITION AND METHODS OF TREATMENT USING […]-ENHANCED SUPPLEMENTATION” (Xygenyx Inc., priority 2023, published 2024).
# Non-standard residues stand in square brackets, D forms with d. Residues, ends and D or L forms follow the SMILES beside them. ξ: configuration not given here. Cit = NC(=O)NCCC[C@H](N)C(=O)O; Ile(3ξ) = CCC(C)[C@H](N)C(=O)O
# Assays:
# F2-isoprostane = conditions: large doses of 1600-3200 IU/day
# [1] = compared to α-tocopherol = 1.0
# [2] = in vivo
# skin [3] = conditions: topical formulations, within four weeks of treatment
# [4] = transdermal route
# [5] = not given; remark: listed apart in the source
# markers of inflammation = conditions: individuals with metabolic syndrome
# skin [6] = conditions: topical, concentrations 0.5-5%
# [7] = patients who did not respond to traditional antidepressant medications
# [8] = dietary intake in equal portions
# [9] = system: wide dynamic range neurons in the ventroposterolateral nucleus of the thalamus; conditions: in vivo
compound,measurement,setting,value
Cc1c(C)c2c(c(C)c1O)CC[C@@](C)(CCC[C@H](C)CCC[C@H](C)CCCC(C)C)O2 [α-tocopherol],reduction of risk of coronary disease,"dietary supplementation, doses up to 400 IU/day",up to 34%
same,reduction of risk of developing neurodegenerative diseases (Alzheimer's Syndrome or dementia),"dietary supplementation, doses up to 400 IU/day, controlled trials",≤ 24%
same,reduction in the development of age-related cataracts,"in combination with 10-20 mg β-carotene and 400-500 mg vitamin C, doses around 400-500 IU",23%
same,blood plasma concentration of F2-isoprostane,F2-isoprostane,significantly lower
same,relative biological activity,[1],1.0
HGH: hormone comprising a peptide chain that is synthesized in the pituitary gland,biological half-life,[2],10-20 minutes
"CCC(C)[C@H](NC(=O)[C@H](CC(=O)O)NC(=O)[C@@H](N)CCCCN)C(=O)N[C@@H](CCCNC(N)=O)C(N)=O (some centres unmarked) [tripeptide-10 citrulline, Tripeptide-10 citrulline] (H-KD[Ile(3ξ)][Cit]-NH2)",improvement of suppleness,skin [3],≤ 54%
"CC12CCC(CC1)C(C)(C)O2 [eucalyptol, 1,8-epoxy-p-menthane]",factor of increase of drug uptake,[4],more than 10
CC(C)[C@@H]1CC[C@@H](C)C[C@H]1O [Menthol],factor of increase of drug uptake,[4],≥ 10
C=C1CC/C=C(\C)CC[C@@H]2[C@@H]1CC2(C)C [β-caryophyllene],increases of protein carbonyl groups and myeloperoxidase activity in the liver and plasma,[5]; arthritic subjects,eliminated
same,number of circulating and articular leukocytes,[5]; rheumatoid arthritis,reduced
same,swelling of joints and lymph nodes,[5]; rheumatoid arthritis,reduced
Cc1cc(O)c(C)c2c1O[C@](C)(CCC[C@H](C)CCC[C@H](C)CCCC(C)C)CC2 [β-tocopherol],relative biological activity,[1],0.5
Cc1cc(O)cc2c1O[C@](C)(CCC[C@H](C)CCC[C@H](C)CCCC(C)C)CC2 [δ-tocopherol],relative biological activity,[1],0.03
same,markers of inflammation in the blood,markers of inflammation,reduced
"C=CCCCCCCCCC(=O)N[C@@H](Cc1ccccc1)C(=O)O [UP, Undecylenoyl phenylalanine]",time of treatment to skin lightening effects,skin [6],≥ 7 days
"CN1c2c([nH]c(N)nc2=O)NCC1CNc1ccc(C(=O)N[C@@H](CCC(=O)O)C(=O)O)cc1 (some centres unmarked) [5-MTHF, 5-methyltetrahydrofolate]",symptoms of depression,[7],improved
Cc1c(O)cc2c(c1C)O[C@](C)(CCC[C@H](C)CCC[C@H](C)CCCC(C)C)CC2 [γ-tocopherol],relative biological activity,[1],0.1
same,concentration in vivo relative to α-tocopherol,[8],roughly 10%
"CCCCCc1cc(O)c2c(c1)OC(C)(C)C1CCC(C)=CC21 (centres unmarked) [THC, Δ-9-tetrahydrocannabinol]",power in mediating pain relative to morphine,[9],ten times
